Experimental data reported in article PMC6597960 (Journal of Alzheimer's Disease Reports, 2019).
Peptide text beside a SMILES is read from it.

Experiments:
[1] = test system: SH-SY5Y neuroblastoma cell line; experiment: Cell cytotoxicity assay; assay type: cell-based; conditions: up to a concentration of 20 μM; 72 h; CellTiterGlo
[2] = test system: APPSWE/Tg2576 mice; experiment: Efficacy in 5-month-old AD model mice: Y-maze spontaneous alternation; assay type: in vivo, mouse; conditions: 5-month-old mice, 100 μg s.c. biweekly for 5 months, n = 12

Compound	Toxicity in SH-SY5Y cells [1]	Y-maze % alternation, after vs before treatment [2]
C[C@H](O)[C@@H](NC(=O)[C@@H](Cc1c[nH]c2ccccc12)NC(=O)[C@@H](CCC(=O)O)NC(=O)CNC(=O)[C@@H](CCCCN)NC(=O)[C@H](N)Cc1c[nH]c2ccccc12)C(=O)NCC(=O)N[C@H](CCCNC(=N)N)C(=O)NCCC(=O)NCCCC[C@H](NC(=O)CCNC(=O)[C@@H](CCCNC(=N)N)NC(=O)CNC(=O)[C@H](NC(=O)[C@@H](Cc1c[nH]c2ccccc12)NC(=O)[C@@H](CCC(=O)O)NC(=O)CNC(=O)[C@@H](CCCCN)NC(=O)[C@H](N)Cc1c[nH]c2ccccc12)[C@H](C)O)C(=O)NCCCC[C@H](NC(=O)[C@H](CCCCNC(=O)CCNC(=O)[C@@H](CCCNC(=N)N)NC(=O)CNC(=O)[C@H](NC(=O)[C@@H](Cc1c[nH]c2ccccc12)NC(=O)[C@@H](CCC(=O)O)NC(=O)CNC(=O)[C@@H](CCCCN)NC(=O)[C@H](N)Cc1c[nH]c2ccccc12)[C@H](C)O)NC(=O)CCNC(=O)[C@@H](CCCNC(=N)N)NC(=O)CNC(=O)[C@H](NC(=O)[C@@H](Cc1c[nH]c2ccccc12)NC(=O)[C@@H](CCC(=O)O)NC(=O)CNC(=O)[C@@H](CCCCN)NC(=O)[C@H](N)Cc1c[nH]c2ccccc12)[C@H](C)O)C(=O)N[C@@H](CS)C(=O)O [RI-peptide] (HELM PEPTIDE1{[dW].[dK].G.[dE].[dW].[dT].G.[dR].[bAla].K.K.C}|PEPTIDE2{[dW].[dK].G.[dE].[dW].[dT].G.[dR].[bAla].K}|PEPTIDE3{[dW].[dK].G.[dE].[dW].[dT].G.[dR].[bAla]}|PEPTIDE4{[dW].[dK].G.[dE].[dW].[dT].G.[dR].[bAla]}$PEPTIDE1,PEPTIDE4,10:R3-9:R2|PEPTIDE1,PEPTIDE2,11:R3-10:R2|PEPTIDE2,PEPTIDE3,10:R3-9:R2$$$V2.0; N-terminus and C-terminus assumed)	not toxic	–
[FFVLK]4	–	improved % alternation results after treatment
